Several values for one entry are separate records, joined by “and”; a condition that tells them apart may be missing. Equal entries are not always repeated. Non-standard residues stand in square brackets, D forms with d. Residues, ends and D or L forms follow the SMILES beside them. *: point of attachment. Cha = N[C@@H](CC1CCCCC1)C(=O)O; dChg = N[C@@H](C(=O)O)C1CCCCC1; dPhg = N[C@@H](C(=O)O)c1ccccc1; pNA = O=[N+]([O-])c1ccc(N*)cc1; Chg = N[C@H](C(=O)O)C1CCCCC1
What was measured:
Format in all cases: biochemical
Human urinary kallikrein [1] = target: T1, Human urinary kallikrein (Homo sapiens, UniProt P06870); assay: IC50 of tripeptide 4-nitroanilides against HUK cleavage of S-2266; conditions: S-2266, 4.0 ng HUK, 37 C, pH 9.0
T1 construct: Human urinary kallikrein (hereinafter "HUK") was highly purified using a modification of published methods; from tissue; host or cells: human urine
From the text: An evaluation of other possible peptide sequences and their potential effect as substrate analogue inhibitors specifically of tissue kallikrein was undertaken using chromogenic substrates comprising alternate series of tripeptide 4-nitroanilides using previously described methods [Amundsen et al., "Methods For The Determination Of Glandular Kallikrein By Means Of A Chromogenic Tripeptide Substrate," in Kinins-II. Part A. Plenum Press, 1979, pages 83-95]. This methodology relies on the capacity of HUK to cleave p-nitroaniline from specifically synthesized tripeptide 4-nitroanilines. Controls for this experimental series included S-2266 comprising D-Val-Leu-Arg-4NA; S-2444 comprising D-Glu-Gly-Arg-4NA; and S-2302 comprising D-Pro-Phe-Arg-4NA respectively. The 50% inhibitory concentration (IC50) values for each synthesized tripeptide 4-nitroanilide was determined at 37 C. at pH 9.0 using the specific kallikrein substrates S-2266 (Kabi, Helena Laboratories, Beaumont, Tex.). 4.0 nanograms (hereinafter "ng") of HUK were used in each sample. Blanks lacking S-2266 were run in parallel to correct for hydrolysis of all samples. In all cases, the amount of 4-nitroaniline generated from each tripeptide was less than 10% of that observed for the hydrolysis of S-2266.

Human urinary kallikrein [2] = target: T1, Human urinary kallikrein; assay: KM determination: hydrolysis of substrate analogues by HUK (HPLC, scintillation counting); conditions: hydrolysis by HUK; kininogen = 1.0
Description: (§1) Human urinary kallikrein (hereinafter "HUK") was highly purified using a modification of published methods that employ ultrafiltration, aprotinin-CH-sepharose affinity chromatography, and Sephadex G-100 gel filtration [ole-MoiYoi et al., Proc. Natl. Acad. Sci. USA 76: 3121-3125 (1979)]. […] The pH of each fraction was determined immediately upon elution, and the fraction was neutralized by addition of 2.0 ml of 2M Tris-HCL buffer (pH 8.0).
KM Determination: Hydrolysis of the substrate analogue inhibitors by HUK was measured by combining the test inhibitor at different concentrations on either side of the KM value with the enzyme at pH 9.0 for thirty minutes at 37 C. The cleavage products were separated from the starting material in the digest by HPLC on a Beckman octadecylsilane (ODS) column (1×25 cm) using a thirty minute gradient of from 0-70% CH3 CN in triethylammonium phosphate buffer (pH 7.0). The starting materials and reaction products were completely resolved under these conditions. Absorbance of the HPLC effluent was monitored at 220 nm. Individual fractions were collected and the amount of peptide degradation products was quantitated by counting in a liquid scintillation counter. Samples containing individual inhibitors were incubated without HUK and solvent blanks were also chromatographed and analyzed in the same way.
For test purposes, in these HUA cleavage studies, individual peptide sequences were synthesized, purified, and characterized as previously described herein. For these cleavage studies, doubly labelled peptides were prepared using [^3 H]-valine and […] respectively. In addition, 6.0N HCL-dioxane was used for removal of tert-butoxycarbonyl protecting groups and 90% hydrogen fluoride/10% anisole (volume/volume) for global deprotection on completion of the synthesis. After extraction and gel filtration on Sephadex G-15, final purification was completed by isocratic elution from a synchrom RP-P column (2.1×25 cm) with CH3 CN--H2 O (8 ml/min). The resultant peptides were deemed to be homogeneous by amino acid analysis; high performance liquid chromatography; thin layer chromatography; and A230 /A260 ratio analysis. […]

Human urinary kallikrein [3] = target: T1, Human urinary kallikrein; assay: KI determination: inhibition of HUK cleavage of chromogenic substrate S-2266; conditions: HUK, substrate S-2266, pH 9.0, 37 C; read-out: KI
Description: as §1
KI Determinations: KI measurements were performed using a HP8450A diode array spectrophotometer (Hewlett Packard; Palo Alto, Calif.) attached to a Model 216 computer using the multi-component assay program modified to allow simultaneous determination of reaction velocity in four samples. Dixon plots were used to data reduction and for calculation of […]. […] Inhibition of biologically active kinin from LMW-kininogen was done at pH 7.7 and 37 C.
Procedurally, the KI values for the preliminary analogue inhibitors reported previously [Okunishi et al., Hypertension 7 (Suppl. I): I-72-I-75 (1985)] were determined by adding the chromogenic substrate S-2266 comprising D-Val-Leu-Arg-4-nitroaniline to a mixture of the analogue inhibitor and the HUK.
Initially, the inhibitor constant (KI) for each of these novel inhibitor compositions was determined using purified HUK and the tripeptide nitroanilide, S-2266. The ability to inhibit hydrolysis of the S-2266 substrate was performed in 50 mM tris-HCL buffer (pH 9.0) at 37 C. Subsequently, the ability of these novel inhibitors to inhibit human plasma kallikrein and bovine pancreatic trypsin were similarly examined using the specific substrates H-D-Pro-Phe-Arg-p-nitroanilide (S-2302) and Glu-Gly-Arg-p-nitroanilide (S-2444) respectively. The degradation products of each series was purified by HPLC and quantified by liquid scintillation counting as previously described.

T1 sequence (P06870 25-262): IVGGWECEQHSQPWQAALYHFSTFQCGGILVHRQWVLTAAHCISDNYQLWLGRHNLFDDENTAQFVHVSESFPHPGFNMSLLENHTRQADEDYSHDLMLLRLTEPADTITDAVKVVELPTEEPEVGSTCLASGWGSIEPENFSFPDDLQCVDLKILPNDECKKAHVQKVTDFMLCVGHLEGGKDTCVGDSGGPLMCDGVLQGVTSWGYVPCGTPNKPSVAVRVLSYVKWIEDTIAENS

IC50 (Human urinary kallikrein [1]) [µM] | RELATIVE SPECIFICITY (Human urinary kallikrein [2]) | Ki (Human urinary kallikrein [3]) | Structure (SMILES)
10.5 |  |  | CC[C@H](C)[C@H](N)C(=O)N[C@@H](CC1CCCCC1)C(=O)N[C@@H](CCCNC(=N)N)C(=O)Nc1ccc([N+](=O)[O-])cc1 [L-Ile--Cha--Arg--4NA] (H-Ile-[Cha]-Arg-pNA)
 | 45.4 | 73 µM | CC(=O)N[C@@H](CO)C(=O)N1CCC[C@H]1C(=O)N[C@@H](Cc1ccccc1)C(=O)N[C@@H](CCCNC(=N)N)C(=O)N[C@@H](CO)C(=O)N[C@H](C(=O)N[C@@H](CCC(N)=O)C(N)=O)C(C)C [KKI-6, Ac--Ser--Pro--Phe--Arg--Ser--Val--Gln--NH2, reference compound] (Ac-SPFRSVQ-NH2)
3.7 |  |  | N=C(N)NCCC[C@H](NC(=O)[C@H](Cc1ccccc1)NC(=O)[C@H](N)C1CCCCC1)C(=O)Nc1ccc([N+](=O)[O-])cc1 [D-Chg--Phe--Arg--4NA] (H-[dChg]-Phe-Arg-pNA)
150 |  |  | NCCCC[C@H](NC(=O)[C@H](CC1CCCCC1)NC(=O)[C@H](N)C1CCCCC1)C(=O)Nc1ccc([N+](=O)[O-])cc1 [D-Chg--Cha--Lys--4NA] (H-[dChg]-[Cha]-Lys-pNA)
 | 3.2 | 156 µM and 136 µM | CC(=O)N1CCC[C@H]1C(=O)N[C@@H](Cc1ccccc1)C(=O)N[C@@H](CCCNC(=N)N)C(=O)N[C@@H](CO)C(=O)N[C@H](C(=O)N[C@@H](CCC(N)=O)C(N)=O)C(C)C [KKI-5, Ac--Pro--Phe--Arg--Ser--Val--Gln--NH2, reference compound] (Ac-PFRSVQ-NH2)
> 200 |  |  | NCCCC[C@H](NC(=O)[C@H](CC1CCCCC1)NC(=O)[C@H](N)c1ccccc1)C(=O)Nc1ccc([N+](=O)[O-])cc1 [D-0Gly--Cha--Lys--4NA] (H-[dPhg]-[Cha]-Lys-pNA)
 |  | 35 µM | CC(=O)N[C@@H](Cc1ccccc1)C(=O)N[C@@H](CCCN=C(N)N)C(=O)N[C@@H](CO)C(=O)N[C@H](C(=O)N[C@@H](CCC(N)=O)C(N)=O)C(C)C [KKI-4, Ac--Phe--Arg--Ser--Val--Gln--NH2, reference compound] (Ac-FRSVQ-NH2)
 | 4.2 |  | CC(=O)N[C@@H](Cc1ccccc1)C(=O)N[C@@H](CCCNC(=N)N)C(=O)N[C@@H](CO)C(=O)N[C@H](C(=O)N[C@@H](CCC(N)=O)C(N)=O)C(C)C [KKI-4, Ac--Phe--Arg--Ser--Val--Gln--NH2, reference compound] (Ac-FRSVQ-NH2)
7.4 |  |  | N=C(N)NCCC[C@H](NC(=O)[C@H](CC1CCCCC1)NC(=O)[C@H](N)c1ccccc1)C(=O)Nc1ccc([N+](=O)[O-])cc1 [D-0Gly--Cha--Arg--4NA] (H-[dPhg]-[Cha]-Arg-pNA)
18.7 |  |  | CC(C)C[C@H](NC(=O)[C@@H](N)C1CCCCC1)C(=O)N[C@@H](CCCNC(=N)N)C(=O)Nc1ccc([N+](=O)[O-])cc1 [L-Chg--Leu--Arg--4NA] (H-[Chg]-Leu-Arg-pNA)
11.5 |  |  | N=C(N)NCCC[C@H](NC(=O)[C@H](CC1CCCCC1)NC(=O)[C@@H](N)C1CCCCC1)C(=O)Nc1ccc([N+](=O)[O-])cc1 [L-Chg--Cha--Arg--4NA] (H-[Chg]-[Cha]-Arg-pNA)
